Assay results published in PubChem BioAssay AID1963874 (Molecular Pharmacology Branch, DTP, NCI, 2024).

Tested on: 253994-281-T-J1-PDC KRAS-mutant spheroids with HUVEC/MSC, viability
Test: Anticancer human tumor 253994-281-T-J1-PDC patient-derived colorectal carcinoma cell line growth inhibition [KRAS2]
Details: for IC50: curve of first compound; for viability, T/C: stronger effect = lower value
Method in brief: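 Combination screen of spheroid viability in tumor-cell co-cultures with endothelial (HUVEC) and mesenchymal stem cell stroma. Each agent was tested in half-log dilutions, topping at clinical Cmax or at 10 microM without a known Cmax.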

[1] = second compound 0.1 µM, first compound 0.01 µM
[2] = second compound 0.1 µM, first compound 0.0316 µM
[3] = second compound 0.1 µM, first compound 0.1 µM
[4] = second compound 0.1 µM, first compound 0.316 µM
[5] = second compound 0.1 µM, first compound 1 µM
[6] = second compound 0.1 µM, first compound 3.16 µM
[7] = second compound 0.316 µM, first compound 0.01 µM
[8] = second compound 0.316 µM, first compound 0.0316 µM
[9] = second compound 0.316 µM, first compound 0.1 µM
[10] = second compound 0.316 µM, first compound 0.316 µM
[11] = second compound 0.316 µM, first compound 1 µM
[12] = second compound 0.316 µM, first compound 3.16 µM
[13] = second compound 1 µM, first compound 0.01 µM
[14] = second compound 1 µM, first compound 0.0316 µM
[15] = second compound 1 µM, first compound 0.1 µM
[16] = second compound 1 µM, first compound 0.316 µM
[17] = second compound 1 µM, first compound 1 µM
[18] = second compound 1 µM, first compound 3.16 µM
[19] = second compound 3.16 µM, first compound 0.01 µM
[20] = second compound 3.16 µM, first compound 0.0316 µM
[21] = second compound 3.16 µM, first compound 0.1 µM
[22] = second compound 3.16 µM, first compound 0.316 µM
[23] = second compound 3.16 µM, first compound 1 µM
[24] = second compound 3.16 µM, first compound 3.16 µM
[25] = second compound 10 µM, first compound 0.01 µM
[26] = second compound 10 µM, first compound 0.0316 µM
[27] = second compound 10 µM, first compound 0.1 µM
[28] = second compound 0.0316 µM, first compound 0.0316 µM
[29] = second compound 0.0316 µM, first compound 0.1 µM
[30] = second compound 0.1 µM, first compound 0.000316 µM
[31] = second compound 0.1 µM, first compound 0.001 µM
[32] = second compound 0.1 µM, first compound 0.00316 µM
[33] = second compound 0.316 µM, first compound 0.000316 µM
[34] = second compound 0.316 µM, first compound 0.001 µM
[35] = second compound 0.316 µM, first compound 0.00316 µM
[36] = second compound 1 µM, first compound 0.000316 µM
[37] = second compound 1 µM, first compound 0.001 µM
[38] = second compound 1 µM, first compound 0.00316 µM
[39] = second compound 3.16 µM, first compound 0.000316 µM
[40] = second compound 3.16 µM, first compound 0.001 µM
[41] = second compound 3.16 µM, first compound 0.00316 µM
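Also: spheroids exposed to agents for seven days before readout.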
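For viability, T/C in this document: percent of DMSO vehicle control viability.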

CC(=O)OC12COC1CC(O)C1(C)C(=O)C(O)C3=C(C)C(OC(=O)C(O)C(NC(=O)OC(C)(C)C)c4ccccc4)CC(O)(C(OC(=O)c4ccccc4)C21)C3(C)C (stereo not given) + CNCc1ccccc1-c1csc(C(C)Nc2nc(C)nc3cc(OC)c(OC)cc23)c1
IC50 (second compound 0.1 µM): 17.8 nM | IC50 (second compound 0.316 µM): 12.9 nM | IC50 (second compound 1 µM): 27.5 nM | IC50 (second compound 3.16 µM): < 10 nM | IC50 (second compound 10 µM): < 10 nM | viability, T/C [1]: 68.3% | viability, T/C [2]: 31.9% | viability, T/C [3]: 26.6% | viability, T/C [4]: 24.7% | viability, T/C [5]: 27.1% | viability, T/C [6]: 25.2% | viability, T/C [7]: 55.8% | viability, T/C [8]: 30.1% | viability, T/C [9]: 23.1% | viability, T/C [10]: 24% | viability, T/C [11]: 26% | viability, T/C [12]: 23.6% | viability, T/C [13]: 74.8% | viability, T/C [14]: 46.6% | viability, T/C [15]: 26.6% | viability, T/C [16]: 25.6% | viability, T/C [17]: 24.4% | viability, T/C [18]: 27% | viability, T/C [19]: 0.31% | viability, T/C [20]: 45.6% | viability, T/C [21]: 5.64% | viability, T/C [22]: 0.12% | viability, T/C [23]: 6.77% | viability, T/C [24]: 27.2% | viability, T/C [25]: 0.17% | viability, T/C [26]: 0.19% | viability, T/C [27]: 0.16% | viability, T/C (second compound 10 µM, first compound 0.316 µM): 0.15% | viability, T/C (second compound 10 µM, first compound 1 µM): 0.17% | viability, T/C (second compound 10 µM, first compound 3.16 µM): 0.21%

CC1OCC2(CCN(c3cnc(Sc4ccnc(N)c4Cl)c(N)n3)CC2)C1N (stereo not given) + C=CC(=O)N1CCN(c2nc(OCC3CCCN3C)nc3c2CCN(c2cccc4cccc(C)c24)C3)CC1CC#N
IC50 (second compound 0.0316 µM): 8570 nM | IC50 (second compound 0.1 µM): > 10000 nM | IC50 (second compound 0.316 µM): 6830 nM | IC50 (second compound 1 µM): 5050 nM | IC50 (second compound 3.16 µM): 82.4 nM | viability, T/C [28]: 112% | viability, T/C [29]: 91.7% | viability, T/C (second compound 0.0316 µM, first compound 0.316 µM): 87.5% | viability, T/C (second compound 0.0316 µM, first compound 1 µM): 81.4% | viability, T/C (second compound 0.0316 µM, first compound 3.16 µM): 65.4% | viability, T/C (second compound 0.0316 µM, first compound 10 µM): 45.3% | viability, T/C [2]: 87.4% | viability, T/C [3]: 100% | viability, T/C [4]: 76.3% | viability, T/C [5]: 78.5% | viability, T/C [6]: 66.1% | viability, T/C (second compound 0.1 µM, first compound 10 µM): 50.4% | viability, T/C [8]: 92.3% | viability, T/C [9]: 100% | viability, T/C [10]: 84.3% | viability, T/C [11]: 72.6% | viability, T/C [12]: 60.9% | viability, T/C (second compound 0.316 µM, first compound 10 µM): 44.9% | viability, T/C [14]: 79.3% | viability, T/C [15]: 82.3% | viability, T/C [16]: 76.7% | viability, T/C [17]: 67.4% | viability, T/C [18]: 56.5% | viability, T/C (second compound 1 µM, first compound 10 µM): 41.4% | viability, T/C [20]: 57.2% | viability, T/C [21]: 48.5% | viability, T/C [22]: 39.8% | viability, T/C [23]: 27% | viability, T/C [24]: 20.6% | viability, T/C (second compound 3.16 µM, first compound 10 µM): 9.67%

Cn1ncnc1[C@H]1c2n[nH]c(=O)c3cc(F)cc(c23)N[C@@H]1c1ccc(F)cc1 + C=CC(=O)N1CCN(c2nc(OCC3CCCN3C)nc3c2CCN(c2cccc4cccc(C)c24)C3)CC1CC#N
IC50 (second compound 0.0316 µM): > 100 nM | IC50 (second compound 0.1 µM): > 100 nM | IC50 (second compound 0.316 µM): > 100 nM | IC50 (second compound 1 µM): > 100 nM | IC50 (second compound 3.16 µM): 0.431 nM | viability, T/C (second compound 0.0316 µM, first compound 0.000316 µM): 93.7% | viability, T/C (second compound 0.0316 µM, first compound 0.001 µM): 93.7% | viability, T/C (second compound 0.0316 µM, first compound 0.00316 µM): 96.8% | viability, T/C (second compound 0.0316 µM, first compound 0.01 µM): 105% | viability, T/C [28]: 100% | viability, T/C [29]: 92.8% | viability, T/C [30]: 94.8% | viability, T/C [31]: 93.1% | viability, T/C [32]: 96.7% | viability, T/C [1]: 86.8% | viability, T/C [2]: 97.2% | viability, T/C [3]: 92.8% | viability, T/C [33]: 95.8% | viability, T/C [34]: 105% | viability, T/C [35]: 98.4% | viability, T/C [7]: 88.4% | viability, T/C [8]: 96.2% | viability, T/C [9]: 84.1% | viability, T/C [36]: 96.8% | viability, T/C [37]: 86.7% | viability, T/C [38]: 91.8% | viability, T/C [13]: 88.9% | viability, T/C [14]: 93.4% | viability, T/C [15]: 85.7% | viability, T/C [39]: 53.9% | viability, T/C [40]: 39.2% | viability, T/C [41]: 28.2% | viability, T/C [19]: 13.3% | viability, T/C [20]: 21% | viability, T/C [21]: 17.7%

CN(C)C/C=C/C(=O)Nc1cc2c(Nc3ccc(F)c(Cl)c3)ncnc2cc1O[C@H]1CCOC1 + COc1cc2nc(C)nc(NC(C)c3cc(N)cc(C(F)(F)F)c3)c2cc1OC1CCOC1
IC50 (second compound 0.1 µM): > 100 nM | IC50 (second compound 0.316 µM): > 100 nM | IC50 (second compound 1 µM): > 100 nM | IC50 (second compound 3.16 µM): > 100 nM | IC50 (second compound 10 µM): > 100 nM | viability, T/C [30]: 100% | viability, T/C [31]: 98.2% | viability, T/C [32]: 108% | viability, T/C [1]: 85.8% | viability, T/C [2]: 90% | viability, T/C [3]: 67.7% | viability, T/C [33]: 86.3% | viability, T/C [34]: 97.8% | viability, T/C [35]: 86.8% | viability, T/C [7]: 81.5% | viability, T/C [8]: 73.5% | viability, T/C [9]: 57.8% | viability, T/C [36]: 84.4% | viability, T/C [37]: 88.7% | viability, T/C [38]: 116% | viability, T/C [13]: 90% | viability, T/C [14]: 91.2% | viability, T/C [15]: 69.8% | viability, T/C [39]: 94.8% | viability, T/C [40]: 87.4% | viability, T/C [41]: 81.3% | viability, T/C [19]: 86.8% | viability, T/C [20]: 61.2% | viability, T/C [21]: 55.2% | viability, T/C (second compound 10 µM, first compound 0.000316 µM): 83.5% | viability, T/C (second compound 10 µM, first compound 0.001 µM): 84.1% | viability, T/C (second compound 10 µM, first compound 0.00316 µM): 82.9% | viability, T/C [25]: 79.2% | viability, T/C [26]: 68.8% | viability, T/C [27]: 54.5%
